The values below come from patent publication US9198886B2, “Use of 2,5-dihydroxybenzene for the treatment of ocular diseases” (priority 2006, dated 2015).

Molecules are shown by their SMILES.

Assay [1] addresses fibroblast growth factor-1 (FGF-1) (Homo sapiens, UniProt P05230). Put plainly: Co-crystal structure with fibroblast growth factor-1. It counts as binding. From the text: FIG. 24. 2-acetoxy-5-hydroxybenzenesulfonic acid co-crystallized with fibroblast growth factor-1. […] The compound occupies a place that is very close to that described occupied by 2,5-dihydroxybenzenesulfonic acid, the aromatic ring of which forms a cation-π bond with the N^ε group of lysine 132, which is marked in panel A as reference. […] In panels A and B, the protein surface is colored according to its electrostatic potential (light grey: negative charge; dark grey: positive charge; white: lack of charge).
FIG. 25. 5-acetoxy-2-hydroxybenzenesulfonic acid co-crystallized with fibroblast growth factor-1. […] The compound occupies a place that is very close to that described occupied by 2,5-dihydroxybenzenesulfonic acid, the aromatic ring of which forms a cation-π bond with the N^ε group of lysine 132, which is marked in panel A as reference. […] In panels A and B, the protein surface is colored according to its electrostatic potential (light grey: negative charge; dark grey: positive charge; white: lack of charge).
FIG. 26. 2,5-diacetoxybenzenesulfonic acid co-crystallized with fibroblast growth factor-1. […] The compound occupies a place that is very close to that described occupied by 2,5-dihydroxybenzenesulfonic acid, the aromatic ring of which forms a cation-π bond with the N^ε group of lysine 132, which is marked in panel A as reference. […] In panels A and B, the protein surface is colored according to its electrostatic potential (light grey: negative charge; dark grey: positive charge; white: lack of charge).
Based on the crystal diffraction of the FGF-1:2-acetoxy-5-hydroxybenzene sulfonic acid, FGF-1:5-acetoxy-2-hydroxybenzene sulfonic acid and FGF-1:2,5-diacetoxybenzene sulfonic acid complexes, the structures of the complexes were calculated and represented. FIGS. 24, 25 and 26, which show the surface of the dyed protein according to its electrostatic potential (light grey: negative charge; dark grey: positive charge; white: lack of charge), show the manner in which 2-acetoxy-5-hydroxybenzene sulfonic acid, 5-acetoxy-2-hydroxybenzene sulfonic acid and 2,5-diacetoxybenzene sulfonic acid interact, respectively, with FGF-1.

The test system of assay [2] is experimentally induced asthma. Put plainly: OVA-induced asthma in mice (methacholine Penh, BAL cell count). It counts as in vivo, Balb/c mice. The procedure:
Effect of potassium 2,5-diacetoxybenzene sulfonate (DABS) on bronchoconstriction in asthmatic mice treated with methacholine. All the mice were exposed to nebulized methacholine (MC; 5 and 20 mg/ml). Bronchoconstriction was determined as the enhanced pause. (Penh), calculated as described in the corresponding example (example 13). As control, the background and the exposure to nebulized saline (0.9% NaCl) are shown. *p<0.05 vs. saline.
Effect of potassium 2,5-diacetoxybenzene sulfonate (DABS) on the inflammatory cell count in the bronchoalveolar lavage (BAL) in asthmatic mice. The data are expressed as mean±SEM of the total number of detected cells in the BAL of the right lung of each animal. *p<0.05, ***p<0.001 vs. group treated with vehicle.
6-9 week old Balb/c mice were used. The ovoalbumin (OVA)/aluminum complex was obtained after dissolving OVA (500 μg/mL) in PBS, and mixing it with an equal volume of 10% aluminum potassium sulfate at pH 6.5 for 1 hour. After centrifuging the pellet (750×g for 5 minutes) the OVA/aluminum pellet was resuspended in distilled water. On day 0, the mice were injected intraperitoneally injected with 100 μg of OVA/aluminum. Eight days later, the mice were anesthetized and exposed to 250 μg of OVA. Later, they were administered 125 μg of OVA on days 15, 18 and 21. […].
The following treatments were administered to the animals: (i.p.) vehicle from day 2, potassium 2,5-diacetoxybencene sulfonate (DABS; 100 mg/kg/day, i.p.) from day 2, DABS (100 mg/kg/day, i.p.) from day 8 and Combivent (20 μg/200 μg in aerosol) on days 20, 21 and 22, the latter as a reference treatment.
In order to evaluate the pulmonary function, the response to methacholine in conscious mice was determined, 24 hours after the last exposure to OVA. The mice were exposed to increasing methacholine concentrations (5 and 20 mg/mL) in the form of aerosol using an ultrasonic nebulizer during 2 minutes. The degree of bronchoconstriction was expressed as the enhanced pause (Penh) which correlates to the mouse air resistance, impedance and pressure within the pleura. The Penh was calculated using the formula Penh=[(Te/Rt−1)×(PEF/PIF)], where Te is expiratory time, Rt is relaxation time, PEF is peak expiratory flow and PIF is peak inspiratory flow×0.67 coefficient.
After measuring airway hyperreactivity, the mice were sacrificed and the bronchoalveolar lavage (BAL) of the right lung was collected. The total number of cells in the BAL fluid was determined.

The test system of assay [3] is human retinal endothelial cells (HREC). The assay is described as follows: Proliferation of human retinal endothelial cells (crystal violet). It counts as cell-based. The conditions noted are these: 100 μM, 72 hours; DHBS as calcium salt. The procedure:
(§1) Primary cultures of human retinal endothelial cells (HREC) were used. Cells were obtained from Cell Systems (Virginia, USA) and subcultured with CSC complete medium (Cell Systems). Cells at 2 to 5 passages were seeded in 24-well plates at 7,500 cells/well density and, once attached, the cells were treated or not treated (controls) with 2A-5HBS (500 and 1000 μM) or 5A-2HBS (500 and 1000 μM) and they were allowed to proliferate for 72 hours, with daily medium changes. After that, the proliferation of HREC was evaluated by staining the fixed cells with crystal violet. The number of cells is proportional to the amount of retained dye, which was spectrophotometrically determined by measuring absorbance at 595 nm after removing the dye from the cells. Data are expressed as the percentage of absorbance at 595 nm obtained in control conditions. Data were obtained from two different experiments performed in triplicate.
as §1, with “2,5-DHCME (50” for “2A-5HBS (500”, “100” for “1000 μM) or 5A-2HBS (500 and 1000”, “changes. Under the same conditions, other cultures were treated with calcium 2,5-dihydroxybenzenesulfonate (DHBS; 100 μM) for comparison.” for “changes.”

Chain of fibroblast growth factor-1 (FGF-1) (P05230 whole entry, species assumed): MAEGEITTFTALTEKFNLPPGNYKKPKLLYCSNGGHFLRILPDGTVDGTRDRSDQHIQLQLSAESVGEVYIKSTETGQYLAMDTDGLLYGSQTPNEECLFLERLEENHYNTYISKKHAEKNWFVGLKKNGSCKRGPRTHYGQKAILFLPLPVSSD

In the case of `CC(=O)Oc1ccc(OC(C)=O)c(S(=O)(=O)[O-])c1.[K+]` [DABS, potassium 2,5-diacetoxybenzene sulfonate], the “binding site on FGF-1” value in assay [1] (crystal diffraction of the complex) is “very close to the one that has been described occupied by 2,5-dihydroxybenzene sulfonic acid”. For the same compound, the “acetoxyl groups of the compound when bound to FGF-1” value in assay [1] (crystal diffraction, electron density contoured at 1σ) is “conserve the acetoxyl groups”. The “methacholine induced bronchoconstriction (Penh)” value in assay [2] (100 mg/kg/day i.p. from day 2) and in assay [2] (100 mg/kg/day i.p. from day 8) was “completely prevented” in each case. The “presence of BAL cells in asthmatic mice” value in assay [2] (100 mg/kg/day i.p., vs vehicle) is listed as “significantly reduced”. Besides, the “BAL cell reduction compared with Combivent” value in assay [2] (DABS 100 mg/kg/day i.p., Combivent aerosol days 20-22) is on record as “even more than the treatment with Combivent”. The “increase of the Penh after exposure to MC vs saline” value in assay [2] (MC 5 and 20 mg/ml, Combivent 20 μg/200 μg aerosol days 20-22 or DABS 100 mg/kg/day i.p.) is on record as “do not show a significant increase of the Penh”.
As for `O=S(=O)(O)c1cc(O)ccc1O` [DHBS, 2,5-dihydroxybenzene sulfonic acid], the HREC proliferation entry in assay [3] is recorded as “failed to significantly affect HREC proliferation”.
